A value given as a limit tells only on which side of the number the result lay.

This is an account of results in ChEMBL document CHEMBL4823324, “Discovery of BMS-986318, a Potent Nonbile Acid FXR Agonist for the Treatment of Nonalcoholic Steatohepatitis” (ACS Med Chem Lett, 2021).

Data set [1] is described as follows: Half life in C57B6 mouse at 1 mg/kg, iv. It is filed as ADME, organism-based. To be noted: in vivo.
The next data set deals with T1, Androgen receptor (Homo sapiens, UniProt P10275).
T1 sequence (P10275 whole entry): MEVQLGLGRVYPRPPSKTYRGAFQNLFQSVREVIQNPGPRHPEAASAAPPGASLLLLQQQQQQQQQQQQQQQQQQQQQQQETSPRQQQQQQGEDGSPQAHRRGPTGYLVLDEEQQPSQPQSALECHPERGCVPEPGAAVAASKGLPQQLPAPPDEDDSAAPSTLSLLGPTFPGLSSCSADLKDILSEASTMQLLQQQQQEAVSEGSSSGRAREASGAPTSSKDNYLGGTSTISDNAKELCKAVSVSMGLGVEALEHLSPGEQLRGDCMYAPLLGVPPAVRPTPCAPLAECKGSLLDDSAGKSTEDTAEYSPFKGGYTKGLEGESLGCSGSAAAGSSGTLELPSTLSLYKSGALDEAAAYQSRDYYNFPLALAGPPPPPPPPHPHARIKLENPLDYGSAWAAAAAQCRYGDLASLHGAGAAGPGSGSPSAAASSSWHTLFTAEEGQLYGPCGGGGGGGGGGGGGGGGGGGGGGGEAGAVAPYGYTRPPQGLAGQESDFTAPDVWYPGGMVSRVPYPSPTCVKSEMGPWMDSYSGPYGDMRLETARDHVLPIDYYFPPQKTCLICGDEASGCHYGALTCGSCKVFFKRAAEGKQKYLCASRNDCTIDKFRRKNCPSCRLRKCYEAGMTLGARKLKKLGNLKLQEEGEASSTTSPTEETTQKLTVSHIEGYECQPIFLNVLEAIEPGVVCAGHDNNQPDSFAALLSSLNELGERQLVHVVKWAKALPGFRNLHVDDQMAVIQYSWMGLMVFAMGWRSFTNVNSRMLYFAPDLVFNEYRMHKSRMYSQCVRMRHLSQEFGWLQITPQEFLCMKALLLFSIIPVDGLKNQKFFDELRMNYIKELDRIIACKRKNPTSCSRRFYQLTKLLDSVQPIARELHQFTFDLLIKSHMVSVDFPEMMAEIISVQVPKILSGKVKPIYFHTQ
Nature of the data set: Activation of androgen receptor (unknown origin) by fluorescence polarization based competition assay.

Data set [2] is described as follows: Metabolic stability in mouse liver microsomes assessed as half life. It is filed as ADME, Microsome. (Liver microsomes are vesicles of endoplasmic reticulum, rich in cytochrome P450 enzymes.)
A short description of data set [3]: AUC in C57B6 mouse at 1 mg/kg, iv. It is filed as ADME, organism-based. More on the design: dose 1 mg/kg. As to conditions: in vivo.
Data set [4] in a line: Half life in C57B6 mouse at 2 mg/kg, po administered as solution. It is filed as ADME, organism-based. To be noted: in vivo.
Data set [5] can be described thus: Cmax in C57B6 mouse at 2 mg/kg, po administered as suspension. It is filed as ADME, organism-based. More on the design: route oral, dose 2 mg/kg. To be noted: in vivo.
Data set [6] deals with T2, Peroxisome proliferator-activated receptor gamma (Homo sapiens, UniProt P37231).
T2 sequence (P37231 whole entry): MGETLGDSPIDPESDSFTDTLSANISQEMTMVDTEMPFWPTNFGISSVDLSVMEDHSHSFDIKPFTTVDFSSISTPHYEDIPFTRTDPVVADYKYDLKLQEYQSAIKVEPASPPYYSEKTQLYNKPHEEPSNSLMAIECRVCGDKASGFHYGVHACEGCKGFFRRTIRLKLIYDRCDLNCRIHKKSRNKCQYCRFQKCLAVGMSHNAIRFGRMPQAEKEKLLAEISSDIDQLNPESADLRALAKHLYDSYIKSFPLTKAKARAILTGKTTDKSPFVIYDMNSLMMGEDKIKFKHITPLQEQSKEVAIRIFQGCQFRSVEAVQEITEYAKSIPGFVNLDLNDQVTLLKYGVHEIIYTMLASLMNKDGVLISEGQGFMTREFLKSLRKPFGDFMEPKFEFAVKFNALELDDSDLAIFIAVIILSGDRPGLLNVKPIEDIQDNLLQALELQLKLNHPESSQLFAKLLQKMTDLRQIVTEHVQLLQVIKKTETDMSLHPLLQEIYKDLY
In words: Activation of PPARgamma LBD (unknown origin) co-expressed with Gal4UAS-luciferase reporter in HEK293 cells incubated for 24 hrs by Steady-Glo luciferase reporter gene based luminescence analysis. It is filed as cell-based. A general note: A reporter such as luciferase makes a cellular process visible.

The nature of data set [7]: Oral bioavailability in C57B6 mouse at 2 mg/kg administered as solution. It is filed as ADME, organism-based. As to conditions: in vivo.
For data set [8], the target named is T3, Oxysterols receptor LXR-alpha (Homo sapiens, UniProt Q13133).
T3 sequence (Q13133 whole entry): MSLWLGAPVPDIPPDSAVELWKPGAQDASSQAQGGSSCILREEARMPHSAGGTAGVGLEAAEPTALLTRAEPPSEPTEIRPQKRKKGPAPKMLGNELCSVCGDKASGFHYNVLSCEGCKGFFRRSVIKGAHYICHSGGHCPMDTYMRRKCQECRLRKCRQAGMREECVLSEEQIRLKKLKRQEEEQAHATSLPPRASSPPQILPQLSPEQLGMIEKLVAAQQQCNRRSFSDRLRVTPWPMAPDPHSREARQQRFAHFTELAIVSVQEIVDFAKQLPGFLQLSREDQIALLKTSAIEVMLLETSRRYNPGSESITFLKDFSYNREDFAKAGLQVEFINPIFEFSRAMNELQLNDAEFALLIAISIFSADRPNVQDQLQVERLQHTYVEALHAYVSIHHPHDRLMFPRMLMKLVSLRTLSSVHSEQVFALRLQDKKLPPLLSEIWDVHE
In words: Activation of human LXRalpha co-expressed with TK-luciferase reporter in African green monkey CV-1 cells incubated for overnight by Steady-Glo luciferase reporter gene based luminescence analysis. It is filed as cell-based.

Data set [9] is described as follows: Clearance in C57B6 mouse at 1 mg/kg, iv. It is filed as ADME, organism-based. As to conditions: in vivo.

Turning to `O=C(O)c1cc(C(F)(F)F)c2cc(N3CCC4(C=C(c5c(-c6c(Cl)cncc6Cl)noc5C5CC5)C4)CC3)ccc2n1`, the half-life in data set [1] is 2.6 h; in [2] it was more than 2 h; in data set [4] it was 2.3 h. Further, the EC50 (on Androgen receptor; in data set [6]; in [8]) was more than 40 µM in each case. This compound had an AUC in data set [3] of 9.32 µM·h. The same compound came in with a peak concentration (Cmax) in data set [5] of 1030 nM. In [7], this compound had a bioavailability of 36%. Besides, the clearance in data set [9] was determined as 3.8 mL/min/kg.

What is called half-life is the time in which the quantity being followed falls by half. Broadly, the EC50 is the concentration needed to bring the measured effect to its halfway point. A word on the AUC: it is the area under the concentration-time curve, a measure of exposure. As usually defined, the Cmax is the highest concentration seen after dosing. In general, bioavailability refers to dose-corrected exposure relative to a reference, in per cent. In general, clearance refers to the volume of plasma or blood freed of the substance per unit of time.
